Test system: rumen liquor
Experiment: In vitro test for methane production, modified Hohenheim Forage value Test (HFT)
Format: cell-based
Details: TMR feed, 8 hours at 39° C., average of four to eight experiments
Procedure: In vitro test for methane production: A modified version of the “Hohenheim Forage value Test (HFT)” was used for testing the effect of specific compounds on the rumen functions mimicked by this in-vitro system.
Principle: Feed is gadded into a syringe with a composition of rumen liquor and an appropriate mixture of buffers. The solution is incubated at 39° C. After 8 hours the quantity (and composition) of gas phase produced is measured and put into a formula for conversion.
Sample weighing: The feed stuff (i.e. TMR (44% concentrate, 6% hay, 37% maize silage and 13% grass silage) is sieved to 1 mm and weighed exactly into 64 syringes. 4 of these syringes are the substrate controls, which display the gas production without the effect of the tested compounds. 4 other syringes are positive control (3-NOP, […]). When needed, 4 syringes contain a carrier control (if the test compounds need a carrier). The remaining syringes contain the test substances, by groups of 4 syringes, in the amounts as indicated in table 1.
• The components are mixed in a Woulff bottle in following order: • 711 ml water • 0.18 ml trace element solution • 355.5 ml buffer solution • 355.5 ml mass element solution • The completed solution is warmed up to 39° C. followed by the addition of 1.83 ml sodium salt solution and the addition of reduction solution at 36° C. • The rumen liquor is added, when the indicator turns colourless.
Extraction of the rumen liquor: 750 ml of rumen liquor are added to approximately 1,400 ml of medium solution under continued agitation and CO2-gassing.
Filling the syringes, incubation and determining gas volumes and VFA values: The diluted rumen fluid (24 ml) is added to the glass syringe. The syringes are then incubated for 8 hours at 39° C. under gentle agitation. After 8 hours, the volume of gas produced is measured, and the percentage of methane in the gas phase is determined by gas chromatography.
The food fermented was artificial TMR (44% concentrate, 6% hay, 37% maize silage and 13% grass silage). […]

| Compound | Total methane change [% vs. control], found (DL 100 μM) [% vs. control] | Total methane change [% vs. control], found (PDMN 5 μM) [% vs. control] | Total methane change [% vs. control], found (PDMN 10 μM) [% vs. control] |
| --- | --- | --- | --- |
| C=C(C)C1CC=C(C)CC1 [DL, D-Limonene] | −1 | – | – |
| O=[N+]([O-])OCCCO [PDMN, Propanediol mononitrate] | – | −27 | −98 |
